Laboratory results taken from patent US7851142B2, “Method of reducing glycolysis in platelet concentrates using L-carnitine, alkanoyl carnitines and salts thereof” (priority 1997, dated 2010).
“Also recorded” adds a separate entry of the source.

What was measured:
[1] = test system: transfused stored RBC; assay: In vivo post-transfusion measurements of 42-day stored RBC (51Cr/99Tc labeling); design: species or system human; details: RBC stored 42 days with 5 mM LC, reinfused into donor
Description: Subjects. The subject population was male or female research subjects between the ages of 18 to 65 years with no known mental or physical disability and taking no drugs that might affect RBC viability. Individuals were recruited who fulfilled the conventional allogeneic donor criteria as listed in the Code of Federal Register, Chapter 2, the Standards of the American Association of Blood Banks, and the Blood Services Directives of the American National Red Cross. The study was approved by the Institutional Review Board of the Medical College of Hampton Roads and the subjects gave informed consent prior to participation in the study.
Each donor donated on two different occasions separated by 72 days, and was randomized to either the test or control arm on the first donation.
In vivo Post-transfusion Measurements. After 42 days of storage, a sample was withdrawn and the stored cells labeled with Cr using standard methods. At the same time, to determine RBC mass, a fresh sample was collected from the donor for RBC labeling with 99 Tc. After labeling, 15 μCi ^51Cr-labeled stored cells and 15 μCi ^99Tc-labeled fresh cells were mixed and simultaneously infused. Blood samples (5 mL) were taken after the infusion at various time intervals for up to 35 days to calculate 24-hour % recovery and survival. The 24-hour % recovery was determined using either the single label method where log-linear regression of the radioactivity levels of samples taken at 5, 7.5, 10, and 15 min. was used to determine 0 time level, or by the double label method using donor RBC mass as determined by the ^99Tc measurement.
Circulating lifespan of the transfused surviving Cr-labeled RBC was determined by samples taken at 24 hours and then twice weekly for up to 5 weeks. The radioactivity levels were corrected for a constant 1% elution per day. The data were fitted to a linear function with post-transfusion days as independent variable (x-axis) and the corrected Cr counts as dependent variable (y-axis). The lifespan of the RBC was then taken as the intersection of the fitted line with the x-axis. […]

[2] = test system: packed RBC (red cell concentrates); assay: In vitro measurements on red cell concentrates stored in AS-3 with or without LC; type: cell-based, human; details: AS-3 with 5 mM LC
Method: Blood storage system. Standard CP2D/AS-3 system (Miles, Inc.) Using polyvinyl chloride (PVC) plastic with diethyl-(n)hexyl-phthalate (DEHP) as plasticizer was used. For each test unit, 245 mg LC (in 1.1 mL pure, pyrogen-free solution in a sterilized glass bottle) was added to the container holding the AS-3 additive solution to give a final concentration of 5 mM. For the control units, 1.1 mL 0.9% NaCl was added to the AS-3 solution using the same conditions. Addition of LC or saline to the bags was performed by injecting through a sampling site coupler with a syringe. This was done in a laminar flow hood under UV light.
Donation & Processing. Standard phlebotomy and blood-drawing methods were used with collection of approximately 450±50 mL whole blood. The whole blood unit was held between 4-8 hours at room temperature before processing. The unit was centrifuged using standard conditions and, after centrifugation, the supernatant plasma was expressed off, and the sedimented packed RBC resuspended either in the standard AS-3 solution (control) or the carnitine-containing AS-3 solution (test). The suspended RBC units were stored at 4° C. for 42 days.
In Vitro Measurements: Measurements performed on pre-(0 day) and post-(42-day) samples included RBC ATP levels; total and supernatant hemoglobin; hematocrit (Hct); RBC, WBC, and platelet counts; RBC osmotic fragility; RBC morphology; lactate and glucose levels; supernatant potassium levels. These were performed using standard procedures as described previously, Heaton et al., Vox Sang 57:37-42 (1989).
Statistical analysis. Paired t-test or routine non-parametric statistical analysis was performed on data from the in vivo and in vitro testing of the units to determine if there were any statistically significant differences (1-tail) in the means between the test and control units. Statistical significance was considered at a p value less than 0.05.

[3] = test system: prestorage-leuko-reduced platelet concentrates; assay: Extended storage of prestorage-leuko-reduced random platelets (glycolysis and platelet quality tests); type: cell-based, human; details: 5 mM L-Carnitine, stored seven or eight days at 22° C.
Method: Study Deign: Two ABO identical prestorage-leuko-reduced platelet concentrates produced by in-line filtration of platelet rich plasma (MedSep Inc., Corvina, Calif.) were pooled, then equally divided into two CLX (MedSep) containers. Either L-Carnitine (final concentration 5 mM) or saline was added to one bag of each pair of platelets. Platelets were stored for either seven or eight days at 22° C. on a flatbed agitator, then tested. Tests performed were pH, platelet count, supernatant glucose and lactate, surface p-selectin expression by flow cytometry, extent of shape change (ESC) and hypotonic shock response (HSR). Glucose consumption and lactate production were calculated as mM/10^12 platelets/day. Data were analyzed using paired t-tests.

[4] = test system: stored RBC; assay: Membrane complex lipid reacylation in stored RBC ([1-14C]palmitic acid incorporation); type: cell-based, human
Method: Analysis of membrane complex lipid reacylation in stored RBC. Blood sample was withdrawn from stored RCC unit through a sampling site coupler with a syringe, and the sample processed immediately. This was done in a laminar flow hood under UV light. All the manipulations were conducted at 0-5° C. unless noted. RBC were washed two times with 4 vol. of cold 0.9% NaCl. Isolated RBC were once again washed with incubation buffer (NaCl 120 mM, KCl 5 mM, MgSO4 1 mM, NaH2PO4 1 mM, saccharose 40 mM, 5 mM glucose, Tris-HCl 10 mM, at pH 7.4) and resuspended in the same buffer at a final hematocrit of 5%. A Rotabath shaking bath at 37° C. was used for the incubations. RBC were incubated with the radioactive palmitic acid (10 μM) complexed to fatty acid free BSA (1.65 mg/ml), Incubations were ended by washing cells once with cold incubation buffer, three times with fatty acid free BSA 1% in incubation buffer, and finally once again with incubation buffer. RBC lipids were extracted from intact cells with the Rose & Oaklander procedure, J. Lipid Res. 6: 428-431 (1965). In order to prevent lipid oxidation, 0.1% butylated hydroxytoluene was added to the lipid extracts. Aliquots of the lipid extract were used for determination of lipid phosphorus content, and analyzed by two dimensional thin layer chromatography. Briefly, the chromatograms were developed using chloroform-methanol-28% ammonia (65:25:5) in the first dimension. The chromatograms were then developed using chloroform-acetone-methanol-acetic acid-water (6:8:2:2:1) in the second dimension. Phosphatidylcholine (PC), a phosphatidylethanolamine (PE), and phosphatidylserine were visualized by brief exposure of the plates to iodine and identified using standards as a reference. Individual phospholipid spots were scraped off into vials containing scintillation fluid and radioactivity was determined by liquid scintillation counting. The identification and analysis of radioactive PLC was carried out as recently described, Arduini et al., J. Biol. Chem. 267: 12673-81 (1992). Counting efficiency was evaluated by an external standard. […]

[5] = test system: coagulase negative staphylococci; assay: Bacterial growth in spiked extended-storage platelet concentrates; type: cell-based; details: for Bacterial growth: platelet concentrate
Method: Study Methods: Two ABO identical prestorage-leuko-reduced platelet concentrates produced by in line filtration of platelet rich plasma (MedSep Corp. Covina, Calif.) were pooled, then equally divided into two CLX® (MedSep) bags. Either LC, to a final concentration of 5 mM, or saline (control) was added to one of each pair. Each container was spiked with 1 ml of a coagulase negative staphylococcal suspension on Day 0 to a final concentration between 1-48 CFU/mL. Samples were removed from each container aseptically on Day 3, Day 6 and either Day 7 or Day 8 for colony count. Data were analyzed by paired t tests.

[6] = test system: standard (non-leuko-reduced) platelet concentrates; details: extended storage (>5 days; five-ten days); cited from earlier work

Q: What does the source list for `C[N+](C)(C)C[C@H](O)CC(=O)[O-]` [L-Carnitine, L-carnitine]?
A: 24 Hr % Recovery (single label) [1]: 84.0 ± 4.4%; 24 Hr Recovery (double label) [1]: 83.9 ± 5.0; Survival (circulating lifespan of infused stored RBC) [1]: 96.1 ± 11.2 days; ATP ([2]; post-storage, 42 days at 4° C.): 3.24 ± 0.38 μmol/g Hb; Glucose ([2]; post-storage, 42 days at 4° C.): 193 ± 40 mg/dL; Hemolysis ([2]; post-storage, 42 days at 4° C.): 0.30 ± 0.22 %; Lactate ([2]; post-storage, 42 days at 4° C.): 199 ± 37 mg/dL; Morphological Score ([2]; post-storage, 42 days at 4° C.): 68 ± 15; Osmotic Fragility ([2]; post-storage, 42 days at 4° C.): 50 ± 4%; Supernatant K+ ([2]; post-storage, 42 days at 4° C.): 60 ± 3 mEq/L; pH ([2]; post-storage, 42 days at 4° C.): 6.32 ± 0.04; ATP ([2]; pre-storage (0 day)): 4.3 ± 0.4 μmol/g Hb; Osmotic Fragility ([2]; pre-storage (0 day)): 49 ± 4%; Supernatant Hb ([2]; pre-storage (0 day)): 26 ± 8 mg/dL; Supernatant K+ ([2]; pre-storage (0 day)): 2.2 ± 0.3 mEq/L; ESC (extent of shape change) [3]: 12 ± 4%; Glucose concentration [3]: 1.13 ± 0.2; HSR (hypotonic shock response) [3]: 50 ± 22%; Lactate production [3]: 1.50 ± 0.2 mM/10^12 platelets/day; pH [3]: 7.09 ± 0.1; P-selectin (% positive) ([3]; flow cytometry): 69 ± 9%; Radioactive palmitate incorporation into membrane PE ([4]; RBC stored in LC-containing AS-3, over storage up to 42 days): sudden increase of PE reacylation toward the end of the storage; Radioactive palmitate incorporated into PLC (palmitoyl-L-carnitine) ([4]; RBC stored in LC-containing AS-3, over storage up to 42 days, listed as LC): initial increase (with a nadir at the 3 week) followed by a rapid decrease; also recorded: greater than that found in red cells stored without LC; Radioactive palmitate incorporation into membrane PC ([4]; RBC stored in LC-containing AS-3 vs AS-3 alone, over storage): no differences were observed between the two red cell preparations; Bacterial growth ([5]; Day 0, 5 mM L-Carnitine): 1.12 ± 0.7 Log CFU/ml; Bacterial growth ([5]; Day 3, 5 mM L-Carnitine): 3.04 ± 0.7 Log CFU/ml; Bacterial growth ([5]; Day 6, 5 mM L-Carnitine): 3.88 ± 1.0 Log CFU/ml; Growth relative to controls ([5]; Day 7/8, 5 mM L-Carnitine): 33%; Bacterial growth ([5]; Day 7/8, 5 mM L-Carnitine): 4.60 ± 1.5 Log CFU/ml; Effect on glycolysis in stored platelet concentrates [6]: reduces glycosis; also recorded: reduces glycolysis
